{"source": "paper PMC11672152", "about": "(JACS Au, 2024)", "key": {"[1]": {"experiment": "In vitro •OH-scavenging capacity", "assay_type": "biochemical", "conditions": "amino acid 80 μM; Cys, Met and Trp compared, normalized to Cys; Figure S18"}, "[2]": {"system": "^1O2 in chloroplasts of N. benthamiana leaf discs", "experiment": "In vivo 1O2 level in chloroplasts of leaf discs", "assay_type": "cell-based, Nicotiana benthamiana", "conditions": "MV 0.35 μM, SOSG 10 μM; MV(+) vs MV(−); n = 8; Figure S22"}, "[3]": {"system": "•OH in chloroplasts of N. benthamiana leaf discs", "experiment": "In vivo •OH level in chloroplasts of leaf discs", "assay_type": "cell-based, Nicotiana benthamiana", "conditions": "MV 0.35 μM, HPF 5 μM; MV(+) vs MV(−); n = 8; Figure S22"}, "[4]": {"experiment": "In vitro 1O2-scavenging capacity", "assay_type": "biochemical", "conditions": "amino acid 80 μM; normalized to Cys; Figure S18"}}}
{"smiles": "N[C@@H](Cc1c[nH]c2ccccc12)C(=O)O", "note": "[Trp, tryptophan]", "values": [{"measurement": "•OH-scavenging capacity of amino acids", "setting": "[1]", "result": "highest •OH-scavenging capacity"}]}
{"smiles": "C[n+]1ccc(-c2cc[n+](C)cc2)cc1", "note": "[MV, methyl viologen]", "values": [{"measurement": "effect on cellular levels of 1O2", "setting": "[2]", "result": "did not affect those of ^1O2"}, {"measurement": "effect on cellular levels of •OH", "setting": "[3]", "result": "elevated the cellular levels of •OH"}]}
{"smiles": "N[C@@H](CS)C(=O)O", "note": "[Cys, cysteine]", "values": [{"measurement": "1O2-scavenging capacity of amino acids compared with Trp", "setting": "[4]", "result": "more effective scavengers for ^1O2 than Trp"}]}
{"smiles": "CSCC[C@H](N)C(=O)O", "note": "[Met, methionine]", "values": [{"measurement": "1O2-scavenging capacity of amino acids compared with Trp", "setting": "[4]", "result": "more effective scavengers for ^1O2 than Trp"}]}
